Drawing on patent US4078146A, “Phenoxy propanolamines” (priority 1972, dated 1978), this text covers ED50 and Emax for eight compounds.

For assay [1], the target named is T1, β-receptors of the heart (Felis catus, UniProt Q9TST6).
T1 construct: Intravenously injected isoprenaline increased the heart rate and reduced the perfusion pressure; from tissue; host or cells: heart of the anaesthetized, reserpinized, vagotomized cat (in vivo)
Description: Intrinsic activity and β-blockade of heart rate response to isoprenaline in the reserpinized cat. The note with it: for ED50: read-out: β-blockade Heart rate ED50; for Emax: read-out: Intrinsic activity % of isoprenaline heart rate response. The assay is classed as in vivo. The protocol:
Alprenolol was used as a reference substance.
(§1) Cats weighing between […] were anaesthetized with 30 mg/kg pentobarbital sodium i.p. The cats had been pretreated with reserpine, 5 mg/kg i.m. about 18 hours before the experiment. Bilateral vagotomy was performed before the start of the experiment.
The heart rate was recorded on an Offner cardiotachometer triggered by the EKG-complex. Mean intraarterial blood pressure was recorded from a carotid artery. The peripheral resistance was measured in one of the legs of the cat in the following way: The femoral artery was opened in the inguinal region and the leg was perfused by blood delivered through a sigma motor pump at constant rate. The flow resistance (the pressure) as recorded via a strain gauge transducer connected to the catheter distally to the pump. The paw was excluded from the circulation by a tight ligature around the ankle. […] An isoprenaline dose giving 70-80% of the maximal chronotropic response was determined. […] Ten minutes before each isoprenaline injection, the tested substances were administered intravenously for two minutes, starting with a dose of 0.01 mg/kg and increasing each subsequent dose fourfold. The intrinsic effects of the test substances were determined. The dose producing 50% blockade of the isoprenaline responses were evaluated from the plotted log dose-per cent blockade diagrams.

The target of assay [2] is T2, peripheral vascular β-receptors (Felis catus, UniProt Q9TST5).
T2 construct: from tissue; host or cells: vascular bed of the blood-perfused leg (paw excluded) of the anaesthetized, reserpinized cat (in vivo)
T2 sequence (Q9TST5 whole entry, the tested form may be a part): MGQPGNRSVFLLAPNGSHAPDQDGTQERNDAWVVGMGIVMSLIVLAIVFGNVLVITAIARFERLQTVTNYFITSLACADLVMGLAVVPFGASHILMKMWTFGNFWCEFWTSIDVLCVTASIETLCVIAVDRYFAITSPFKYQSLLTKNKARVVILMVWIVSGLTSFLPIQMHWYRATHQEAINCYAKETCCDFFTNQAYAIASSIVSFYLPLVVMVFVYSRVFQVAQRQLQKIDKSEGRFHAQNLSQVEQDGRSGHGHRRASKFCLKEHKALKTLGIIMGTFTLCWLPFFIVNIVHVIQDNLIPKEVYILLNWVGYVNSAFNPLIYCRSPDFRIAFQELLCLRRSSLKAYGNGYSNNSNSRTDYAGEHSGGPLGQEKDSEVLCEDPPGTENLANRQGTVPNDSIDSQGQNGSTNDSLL
Nature of the assay: Peripheral vascular β-blockade (peripheral vascular resistance, vasodilator response to isoprenaline) in the reserpinized cat. The note with it: read-out: β-blockade Peripheral vascular resistance ED50. In kind it is in vivo. The protocol:
The compounds prepared according to examples 1-18 were evaluated for intrinsic activity and blocking effect on heart rate and for peripheral vasodilator response to isoprenaline in the cat. Alprenolol was used as a reference substance.
as §1
The heart rate was recorded on an Offner cardiotachometer triggered by the EKG-complex. Mean intraarterial blood pressure was recorded from a carotid artery. The peripheral resistance was measured in one of the legs of the cat in the following way: The femoral artery was opened in the inguinal region and the leg was perfused by blood delivered through a sigma motor pump at constant rate. The flow resistance (the pressure) as recorded via a strain gauge transducer connected to the catheter distally to the pump. The paw was excluded from the circulation by a tight ligature around the ankle. Intravenously injected isoprenaline increased the heart rate and reduced the perfusion pressure. An isoprenaline dose giving 70-80% of the maximal chronotropic response was determined. This dose (usually 0.1 μg/kg) was then repeated with 20 minute intervals. Ten minutes before each isoprenaline injection, the tested substances were administered intravenously for two minutes, starting with a dose of 0.01 mg/kg and increasing each subsequent dose fourfold. The intrinsic effects of the test substances were determined. The dose producing 50% blockade of the isoprenaline responses were evaluated from the plotted log dose-per cent blockade diagrams.

Setting [3] is: reserpinized cat, intravenous, 50% blockade of isoprenaline response (usually 0.1 μg/kg).

Where two headings read alike, the source gives them in different places.

T1 sequence (Q9TST6 whole entry, the tested form may be a part): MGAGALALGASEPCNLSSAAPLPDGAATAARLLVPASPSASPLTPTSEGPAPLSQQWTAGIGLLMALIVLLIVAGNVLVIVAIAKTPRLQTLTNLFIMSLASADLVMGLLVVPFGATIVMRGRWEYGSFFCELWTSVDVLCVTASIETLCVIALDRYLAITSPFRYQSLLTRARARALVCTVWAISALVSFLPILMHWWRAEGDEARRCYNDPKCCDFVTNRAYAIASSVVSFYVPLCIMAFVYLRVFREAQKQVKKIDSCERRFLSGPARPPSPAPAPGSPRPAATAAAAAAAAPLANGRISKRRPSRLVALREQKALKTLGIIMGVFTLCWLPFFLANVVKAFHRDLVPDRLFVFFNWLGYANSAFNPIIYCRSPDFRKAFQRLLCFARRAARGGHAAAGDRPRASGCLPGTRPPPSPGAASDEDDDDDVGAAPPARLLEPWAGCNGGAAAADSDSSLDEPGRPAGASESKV

As to `CC(C)NCC(O)COc1ccc(CCNC(N)=O)cc1` (stereo not shown) [H2 NCONHC2 H4, H], the ED50 (in general, the dose at which the effect has come halfway, by size or by number of responders) in assay [1] (setting [3]) amounted to 0.4 mg/kg; in assay [2] (setting [3]), 14 mg/kg. For the same compound, the Emax in assay [1] (reserpinized cat, intravenous) turned out to be 0%.
As for `C=CCc1ccccc1OCC(O)CNC(C)C` (stereo not shown) [alprenolol, Alprenolol, reference compound], in assay [1] (reserpinized cat, intravenous), the Emax amounted to 20%.
Take `CNC(=O)OCCc1ccc(OCC(O)CNC(C)C)c(Cl)c1` (stereo not shown) [CH3 NHCOOC2 H4, Cl, 1-Isopropylamino-3-[2-chloro-4-(2-methylcarbamoyloxyethyl)-phenoxy]-propanol-2]: the ED50 in assay [1] (setting [3]) turned out to be 0.3 mg/kg; in assay [2] (setting [3]), 1.8 mg/kg. Further, in assay [1] (reserpinized cat, intravenous), the Emax was determined as 0%.
In the case of `CNC(=O)OCCOc1ccc(OCC(O)CNC(C)C)cc1` (stereo not shown) [CH3 NHCOOC2 H4 O, H, 1-isopropylamino-3-[4-(2-methylcarbamoyloxyethoxy)-phenoxy]-propanol-2], the ED50 is 0.5 mg/kg in assay [1] (setting [3]) and greater than 8.5 mg/kg in assay [2] (setting [3]). Further, the Emax in assay [1] (reserpinized cat, intravenous) was 25%.
On to `CC(C)NCC(O)COc1ccc(OCCOC(N)=O)cc1` (stereo not shown) [H2 NCOOC2 H5 O, H, 1-Isopropylamino-3-[4-(2-carbamoyloxyethoxy)-phenoxy]-propanol-2], for which the ED50 in assay [1] (cat, iv) was found to be 0.4 mg/kg; in assay [2] (cat, iv) it was 8 mg/kg. In addition, the Emax in assay [1] (iv) is 40%.
For the compound `CNC(=O)OCCc1ccc(OCC(O)CNC(C)C)cc1` (stereo not shown) [CH3 NHCOOC2 H4, H, 1-Isopropylamino-3-[4-(2-methylcarbamoyloxyethyl)-phenoxy]-propanol-2], the median effective dose (ED50) in assay [1] (setting [3]) is 0.4 mg/kg; in assay [2] (setting [3]), 2.4 mg/kg. Further, the Emax in assay [1] (reserpinized cat, intravenous) amounted to 0%.
As to `CC(C)NCC(O)COc1ccc(OCCOC(=O)N(C)C)cc1Cl` (stereo not shown) [(CH3)2 NCOOC2 H4 O, Cl, 1-Isopropylamino-3-[2-chloro-4-(2-dimethylcarbamoyloxyethoxy)-phenoxy]-propanol-2], the ED50 came to 0.1 mg/kg in assay [1] (setting [3]) and 1.7 mg/kg in assay [2] (setting [3]). For the same compound, the Emax in assay [1] (reserpinized cat, intravenous) is 5%.
Take `CC(C)NCC(O)COc1ccc(CCNC(N)=O)cc1Cl` (stereo not shown) [H2 NCONHC2 H4, Cl, 1-Isopropylamino-3-[2-chloro-4-(2-carbamoylaminoethyl)phenoxy]-propanol-2]: the results for the 50% effective dose (ED50) in assay [1] (setting [3]) and in assay [2] (setting [3]) were 0.4 mg/kg and 2.6 mg/kg, respectively. Further, in assay [1] (reserpinized cat, intravenous), the Emax is 0%.
